Measurements taken from US20030031647A1, “IFN-alpha and amantadine for treating hepatitis C” (priority 1997, published 2003).

Tests used:
Hepatitis C Virus = experiment: HCV RNA in cultured PBMC from chronic hepatitis C patients (RT-PCR, AMPLICOR HCV MONITOR assay); type: cell-based, Hepatitis C virus (subtype 1b prevalent) in human PBMC; conditions: for Number of cases with HCV RNA Negative / Number of cases with reduction in HCV RNA concentration >25% / Number of cases with reduction in HCV RNA concentration >50% / Number of cases with reduction in HCV RNA concentration >75%: IFN-α2A 0 IU/ml, PBMC, n = 15
Description: Antiviral Effect of Amantadine and IFN-α2A Against Hepatitis C Virus on Peripheral Blood Mononuclear Cells (PBMC) from Chronic Hepatitis C Patients
Mononuclear cells from patients with chronic hepatitis C (serum anti-HCV and HCV RNA positive with histologically proven chronic hepatitis) were analyzed for the presence of HCV RNA, using reverse transcription and PCR techniques with universal primers from the highly conserved 5′ non-coding region of the HCV genome (Navas et al., J. Hepatol. 21, 182-186 (1994)). Typing and subtyping of HCV genomes were performed by RFLP analysis of PCR products (Navas et al., J. Clin. Microbiol. 21, 317-321(1997)). For the purpose of this study, only cases infected by a single genotype have been considered, in order to minimize the possible interference of multiple genotypes, in the subject population, HCV subtype 1b was prevalent (Pernas et al., J. Gen. Virol. 76, 415-420(1995)). Thus, HCV RNA-positive PBMC obtained from 15 patients have been analyzed in vitro for the effects of treatment. PBMC from 10 matched healthy donors have been used as controls and analyzed similarly.
(§1) PBMC were isolated from heparinized venous blood by Ficoll-Hypaque gradient sedimentation. The interphase PBMC were isolated, washed twice with phosphate-buffered saline, and suspended in RPMI. The viability of these cells was assessed by trypan blue exclusion. PBMC were cultured in duplicate at a concentration of 2×10^6 viable cells/ml in 6-well tissue culture dusters, in a humid atmosphere with 5% CO2 for 7 days. The cultures have been maintained without mitogens (medium alone) or were stimulated with single mitogens (Phytohemagglutinin (PHA) or Lipopolysaccharide (LPS) or with PHA plus LPS (10 μg/ml each)(Martin et al., Cytokine 8, 313-317 (1996)). PBMC proliferation, and the possible drug-induced cytotoxicity, were measured using non-isotopic cell-proliferation and cytotoxicity assays.
The effect of experimental treatments with amantadine alone, in combination with IFN-α2A and those of IFN-α2A alone, have been established by testing HCV RNA in cultured mononuclear cells, compared with untreated PBMC from patients (Martin et al., supra); specificity controls were as described previously by Navas et al. in J. Hepatol. 21, 182-186 (1994). Treatment of mononuclear cells form healthy donors with amantadine alone, in combination with IFN-α2A or with IFN-α2A alone, served as controls. Changes in HCV RNA concentrations were measured by the AMPLICOR™ HCV MONITOR assay (Roche Diagnostic System, Inc., Branchburg).

PBMC = PBMC viability, proliferation and cytotoxicity (non-isotopic cell-proliferation and cytotoxicity assays); type: cell-based, human; conditions: for PBMC proliferation: PBMC from healthy donors
Description: as §1

[1] = amantadine 1-5 μM, cultured PBMC from HCV patients and healthy donors

NC12CC3CC(CC(C3)C1)C2 [Amantadine, tricyclo[3.3.1.1^3,7]decane-1-amine]
PBMC cultures in which HCV RNA became negative (Hepatitis C Virus; 2 μM amantadine, 1/15 patients): 7% | PBMC cultures in which HCV RNA became negative (Hepatitis C Virus; 5 μM amantadine, 3/15 patients): 20% | Number of cases with HCV RNA Negative (Hepatitis C Virus; Amantadine 1 μM): 0 | Number of cases with reduction in HCV RNA concentration >25% (Hepatitis C Virus; Amantadine 1 μM): 3 | Number of cases with reduction in HCV RNA concentration >50% (Hepatitis C Virus; Amantadine 1 μM): 2 | Number of cases with reduction in HCV RNA concentration >75% (Hepatitis C Virus; Amantadine 1 μM): 3 | Number of cases with HCV RNA Negative (Hepatitis C Virus; Amantadine 2 μM): 1 | Number of cases with reduction in HCV RNA concentration >25% (Hepatitis C Virus; Amantadine 2 μM): 5 | Number of cases with reduction in HCV RNA concentration >50% (Hepatitis C Virus; Amantadine 2 μM): 2 | Number of cases with reduction in HCV RNA concentration >75% (Hepatitis C Virus; Amantadine 2 μM): 4 | Number of cases with HCV RNA Negative (Hepatitis C Virus; Amantadine 5 μM): 3 | Number of cases with reduction in HCV RNA concentration >25% (Hepatitis C Virus; Amantadine 5 μM): 2 | Number of cases with reduction in HCV RNA concentration >50% (Hepatitis C Virus; Amantadine 5 μM): 2 | Number of cases with reduction in HCV RNA concentration >75% (Hepatitis C Virus; Amantadine 5 μM): 3 | PBMC proliferation (PBMC; amantadine 50 μM): slightly decreased PBMC proliferation | PBMC proliferation (PBMC; amantadine 500 μM): marked anti-proliferative effect | cell viability (PBMC; [1]): did not affect the cell viability | response to mitogens (PBMC; [1]): minor effects on the response to mitogens
